pIC50: −log10 of the molar value.

In assay [1] the target is T1, Steroid 17-alpha-hydroxylase/17,20 lyase (Rattus norvegicus, UniProt P11715).
T1 sequence (P11715 whole entry): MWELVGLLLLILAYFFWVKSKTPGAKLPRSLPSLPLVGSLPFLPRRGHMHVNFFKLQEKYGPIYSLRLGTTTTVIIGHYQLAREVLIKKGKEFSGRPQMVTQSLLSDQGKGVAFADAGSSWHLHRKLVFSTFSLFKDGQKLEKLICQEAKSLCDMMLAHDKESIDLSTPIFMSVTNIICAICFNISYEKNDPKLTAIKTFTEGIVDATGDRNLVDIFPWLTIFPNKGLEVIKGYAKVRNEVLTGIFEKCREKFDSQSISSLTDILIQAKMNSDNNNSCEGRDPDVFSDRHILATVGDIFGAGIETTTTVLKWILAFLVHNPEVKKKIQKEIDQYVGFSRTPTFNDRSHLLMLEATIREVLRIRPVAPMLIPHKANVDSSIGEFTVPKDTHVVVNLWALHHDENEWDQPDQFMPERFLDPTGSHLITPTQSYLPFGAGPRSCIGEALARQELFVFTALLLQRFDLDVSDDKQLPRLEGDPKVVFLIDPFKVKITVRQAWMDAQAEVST
Nature of the assay: Inhibition of rat testis 17-alpha-hydroxylase component of P450-17alpha at 10 uM.

Assay [2] has as its target T1, Steroid 17-alpha-hydroxylase/17,20 lyase. Nature of the assay: Inhibition of rat testis 17-alpha-hydroxylase component of P450-17alpha.
Assay [3] shares this target. Description: Inhibition of rat testis 17,20 lyase component of P450-17alpha at 10 uM.
For assay [4] the target is unchanged. Description: Inhibition of rat testis 17,20 lyase component of P450-17alpha.

With `c1ccc(Cn2ccnc2)cc1`, the inhibition at 10 µM in assay [1] came to 13.5%; in assay [3], 12.6%. Further, the negative-log IC50 (pIC50) was 3.81 in assay [2] and 4.29 in assay [4].
Regarding `Clc1ccc(CCn2ccnc2)cc1`, the inhibition at 10 µM turned out to be 28.4% in assay [1] and 57.4% in assay [3]. The compound also had a negative logarithm of the IC50 (pIC50) in assay [2] of 4.30.
In the case of `c1ccc(CCn2ccnc2)cc1`, the inhibition at 10 µM in assay [1] turned out to be 10.6%; in assay [3], 6.36%.
Consider `Clc1ccc(Cn2ccnc2)cc1`, for which the figures for the inhibition at 10 µM in assay [1] and in assay [3] were 45.7% and 73.7%, respectively. Further, the values for the pIC50 in assay [2] and in assay [4] were 4.53 and 5.31, respectively.
As to `Brc1ccc(CCn2ccnc2)cc1`, the values for the inhibition at 10 µM in assay [1] and in assay [3] were 37.5% and 61.5%, respectively. The pIC50 in assay [2] was 4.51.
In the case of `Brc1ccc(Cn2ccnc2)cc1`, the inhibition at 10 µM in assay [1] is 49.3%; in assay [3], 76.2%. Also, the pIC50 is 4.78 in assay [2] and 5.55 in assay [4].
In the case of `Fc1ccc(Cn2ccnc2)cc1`, the values for the inhibition at 10 µM in assay [1] and in assay [3] were 20.5% and 51%, respectively. Further, the figures for the pIC50 in assay [2] and in assay [4] were 4.02 and 4.95, respectively.
Consider `CC(=O)N1CCN(c2ccc(OCC3COC(Cn4ccnc4)(c4ccc(Cl)cc4Cl)O3)cc2)CC1` (stereo not given) [KETOCONAZOLE], for which the inhibition at 10 µM worked out at 61.5% in assay [1] and 78.7% in assay [3].
In the case of `Brc1ccc(CCCn2ccnc2)cc1`, the figures for the inhibition at 10 µM in assay [1] and in assay [3] were 70.2% and 86.3%, respectively. Also, the values for the pIC50 in assay [2] and in assay [4] were 5.53 and 6.48, respectively.
For `Fc1ccc(CCn2ccnc2)cc1`, the figures for the inhibition at 10 µM in assay [1] and in assay [3] were 22.5% and 45.1%, respectively. In addition, in assay [2], the pIC50 was 3.92.
As for `c1ccc(CCCn2ccnc2)cc1`, the inhibition at 10 µM is 23.4% in assay [1] and 40% in assay [3]. Also, the negative-log IC50 (pIC50) in assay [2] was 4.51; in assay [4], 5.21.
As to `Fc1ccc(CCCn2ccnc2)cc1`, the inhibition at 10 µM in assay [1] stood at 40.8%; in assay [3], 73.2%. The values for the pIC50 in assay [2] and in assay [4] were 4.56 and 5.71, respectively.
On to `Clc1ccc(CCCn2ccnc2)cc1`, for which the inhibition at 10 µM in assay [1] stood at 71%; in assay [3] it was 80.8%. Besides, the results for the pIC50 in assay [2] and in assay [4] were 5.23 and 6.26, respectively.

The record behind these values is ChEMBL document CHEMBL1149361, “Synthesis, biochemical evaluation and rationalisation of the inhibitory activity of a range of 4-substituted phenyl alkyl imidazole-based inhibitors of the enzyme complex 17alpha-hydroxylase/17,20-lyase (P450(17alpha))” (Bioorg Med Chem Lett, 2006).
